Values after ≈ are worked out from the molar mass of the structure shown.
Experiments:
[1] = test system: Aspergillus fumigatus TIMM0063; assay: In vitro anti-Aspergillus activity test; assay type: cell-based; conditions: for A. fumigatus (MIC): 80% or more inhibition, unit inferred
Description: Aspergillus fumigatus TIMM0063 was used as the strain. The test fungi were cultured on a Potato dextrose agar slant medium at 35° C. for 4 days, and then sterilized saline containing 0.1% (v/v) Tween 80 was added to release the conidia. This conidial suspension was filtered through sterile gauze, and the number of conidia was counted using a hemocytometer. The same solution was adjusted to a conidial concentration of 1×10^6 conidia/mL, and this was used as an inoculum. Each compound was dissolved in dimethyl sulfoxide to a predetermined concentration, and diluted 50-fold with 0.165 M MOPS buffered RPMI 1640 liquid medium, and each diluted solution was dispensed into a 96-well microplate by each 100 μL. The inoculum was diluted 50-fold with 0.165 M MOPS buffered RPMI 1640 liquid medium containing 20% alamar Blue™, and the diluted solution was inoculated into the 96-well microplate containing the compound by each 100 μL (final inoculum amount 1.0×10^4 conidia/mL). After static culture at 35° C. for 48 hr, the degree of color development of the alamar Blue™ was measured using a microplate reader (O.D. 570-595 nm), and the minimum concentration showing 80% or more inhibition was defined as the minimum inhibitory concentration (MIC).

[2] = test system: Candida albicans NBRC1270; assay: In vitro anti-Candida activity test; assay type: cell-based; conditions: for C. albicans (MIC): 80% or more inhibition, unit inferred
Description: Candida albicans NBRC1270 was used as the strain. The test fungi were cultured on a Sabouraud dextrose agar slant medium at 35° C. for 24 hr, and then suspended in sterilized saline. The number of cells in this suspension was counted using a hemocytometer, and the same suspension was adjusted to a cell concentration of 1.5×10^5 cells/mL, and this was used as an inoculum. Each compound was dissolved in dimethyl sulfoxide to a predetermined concentration, and diluted 50-fold with 0.165 M MOPS buffered RPMI 1640 liquid medium, and each diluted solution was dispensed into a 96-well microplate by each 100 μL. The inoculum was diluted 50-fold with 0.165 M MOPS buffered RPMI 1640 liquid medium containing 20% alamar Blue™, and the diluted solution was inoculated into the 96-well microplate containing the compound by each 100 μL (final inoculum amount 1.5×10^3 cells/mL). After static culture at 35° C. for 24 hr, the degree of color development of the alamar Blue™ was measured using a microplate reader (O.D. 570-595 nm), and the minimum concentration showing 80% or more inhibition was defined as the minimum inhibitory concentration (MIC).

[3] = Table 22, 35° C. for 48 hr, alamar Blue, minimum concentration showing 80% or more inhibition
[4] = Table 22, 35° C. for 24 hr, alamar Blue, minimum concentration showing 80% or more inhibition

Row | Structure (SMILES) | A. fumigatus (MIC) ([1]; Table 23, 35° C. for 48 hr) | C. albicans (MIC) ([2]; Table 23, 35° C. for 24 hr) | A. fumigatus (MIC) ([1]; Table 24, 35° C. for 48 hr) | C. albicans (MIC) ([2]; Table 24, 35° C. for 24 hr) | other results
1 | N#C/C(=C1/SCC(c2ncc(NC(=O)OCc3ncc(F)cc3F)cc2Cl)S1)n1cncn1 (racemic) [compound 75] | 10 ng/mL | 10 ng/mL | – | – | –
2 | CC(C)COC(=O)Nc1cnc(C2CS/C(=C(/C#N)n3cncn3)S2)c(Cl)c1 (racemic) [compound 83] | 10 ng/mL | 5 ng/mL | – | – | –
3 | CCCOC(=O)Nc1cnc(C2CS/C(=C(/C#N)n3cncn3)S2)c(Cl)c1 (racemic) [compound 84] | 5 ng/mL | 5 ng/mL | – | – | –
4 | N#C/C(=C1/SCC(c2ncc(NC(=O)OCC3CC3)cc2Cl)S1)n1cncn1 (racemic) [compound 87] | 5 ng/mL | 1.25 ng/mL | – | – | –
5 | N#C/C(=C1/SCC(c2ncc(NC(=O)OCc3ccc(F)cc3)cc2Cl)S1)n1cncn1 (racemic) [compound 89] | 10 ng/mL | 2.5 ng/mL | – | – | –
6 | N#C/C(=C1/SCC(c2ncc(NC(=O)OCC3CC3(F)F)cc2Cl)S1)n1cncn1 (racemic) [compound 96] | 10 ng/mL | 5 ng/mL | – | – | –
7 | N#C/C(=C1/SCC(c2ncc(NC(=O)OCC3CCC3)cc2Cl)S1)n1cncn1 (racemic) [compound 97] | 10 ng/mL | 2.5 ng/mL | – | – | –
8 | N#C/C(=C1/SCC(c2ncc(NC(=O)OCc3cccc(F)c3)cc2Cl)S1)n1cncn1 (racemic) [compound 98] | 5 ng/mL | 2.5 ng/mL | – | – | –
9 | N#C/C(=C1/SCC(c2ncc(NC(=O)OCc3ccccc3F)cc2Cl)S1)n1cncn1 (racemic) [compound 99] | 5 ng/mL | 2.5 ng/mL | – | – | –
10 | N#C/C(=C1/SCC(c2ncc(NC(=O)OCC3CC3)cc2F)S1)n1cncn1 (racemic) [compound 103] | 10 ng/mL | 5 ng/mL | – | – | –
11 | N#C/C(=C1/SCC(c2ncc(NC(=O)OCC3CC(F)(F)C3)cc2Cl)S1)n1cncn1 (racemic) [compound 107] | 10 ng/mL | 5 ng/mL | – | – | –
12 | N#C/C(=C1/SCC(c2ncc(NC(=O)OCc3ccncc3F)cc2Cl)S1)n1cncn1 (racemic) [compound 114] | – | – | 10 ng/mL | 10 ng/mL | –
13 | N#C/C(=C1/SCC(c2ncc(NC(=O)OCc3ccnc(F)c3)cc2Cl)S1)n1cncn1 (racemic) [compound 115] | – | – | 10 ng/mL | 5 ng/mL | –
14 | CC1CC1COC(=O)Nc1cnc(C2CS/C(=C(/C#N)n3cncn3)S2)c(Cl)c1 (racemic) [compound 118] | – | – | 5 ng/mL | 1.25 ng/mL | –
15 | N#C/C(=C1/SCC(c2ncc(NC(=O)OCC3CC3(F)F)cc2F)S1)n1cncn1 (racemic) [compound 128] | – | – | 10 ng/mL | 10 ng/mL | –
16 | N#CC(=C1SCC(c2ncc(C=NOCC3CC3)cc2Cl)S1)n1cncn1 (racemic) [compound 139] | – | – | 2.5 ng/mL | 1.25 ng/mL | –
17 | N#CC(=C1SCC(c2ncc(C=NOCC3CC3)cc2F)S1)n1cncn1 (racemic) [compound 140] | – | – | 2.5 ng/mL | 2.5 ng/mL | –

Row | Structure (SMILES) | A. fumigatus (MIC) ([1]; Table 23, 35° C. for 48 hr) | C. albicans (MIC) ([2]; Table 23, 35° C. for 24 hr) | A. fumigatus (MIC) ([1]; Table 24, 35° C. for 48 hr) | C. albicans (MIC) ([2]; Table 24, 35° C. for 24 hr) | other results
18 | CCCON=Cc1cnc(C2CSC(=C(C#N)n3cncn3)S2)c(Cl)c1 (racemic) [compound 141] | – | – | 2.5 ng/mL | 2.5 ng/mL | –
19 | CC(C)ON=Cc1cnc(C2CSC(=C(C#N)n3cncn3)S2)c(Cl)c1 (racemic) [compound 142] | – | – | 10 ng/mL | 2.5 ng/mL | –
20 | CC(C)CON=Cc1cnc(C2CSC(=C(C#N)n3cncn3)S2)c(Cl)c1 (racemic) [compound 143] | – | – | 5 ng/mL | 2.5 ng/mL | –
21 | CCCON=Cc1cnc(C2CSC(=C(C#N)n3cncn3)S2)c(F)c1 (racemic) [compound 144] | – | – | 5 ng/mL | 10 ng/mL | –
22 | N#C/C(=C1/SCC(c2ncc(NC(=O)OCC3(F)CC3)cc2Cl)S1)n1cncn1 (racemic) [compound 150] | – | – | – | – | A. fumigatus (MIC) ([1]; Table 25, 35° C. for 48 hr): 10 ng/mL; C. albicans (MIC) ([2]; Table 25, 35° C. for 24 hr): 5 ng/mL
23 | N#C/C(=C1/SCC(c2ncc(NC(=O)OCC3CC3(Cl)Cl)cc2Cl)S1)n1cncn1 (racemic) [compound 151] | – | – | – | – | A. fumigatus (MIC) ([1]; Table 25, 35° C. for 48 hr): 10 ng/mL; C. albicans (MIC) ([2]; Table 25, 35° C. for 24 hr): 2.5 ng/mL
24 | CCOC(=O)Nc1cnc([C@@H]2CS/C(=C(/C#N)n3cncn3)S2)c(F)c1 [Compound No. 8, ethyl (R,E)-(6-{2-[cyano(1H-1,2,4-triazol-1-yl)methylene]-1,3-dithiolan-4-yl}-5-fluoropyridin-3-yl)carbamate] | – | – | – | – | MIC ([1]; Aspergillus fumigatus, Table 22, 35° C. for 48 hr, alamar Blue, minimum concentration showing 80% or more inhibition, read-out: minimum inhibitory concentration against various fungi (MIC) A. fumigatus): 5 ng/mL (≈ 0.0127 µM); MIC ([2]; Candida albicans, Table 22, 35° C. for 24 hr, alamar Blue, minimum concentration showing 80% or more inhibition, read-out: minimum inhibitory concentration against various fungi (MIC) C. albicans): 25 ng/mL (≈ 0.0637 µM)
25 | CC1(C)OCC(c2cnc(C3CS/C(=C(/C#N)n4ccnc4)S3)c(Cl)c2)O1 (stereo not drawn) [compound 5] | – | – | – | – | minimum inhibitory concentration against various fungi (MIC) A. fumigatus [1, 3]: 10 ng/mL (≈ 0.0238 µM); minimum inhibitory concentration against various fungi (MIC) C. albicans [2, 4]: 5 ng/mL (≈ 0.0119 µM)
26 | COC(=O)Nc1cnc([C@@H]2CS/C(=C(/C#N)n3cncn3)S2)c(Cl)c1 [compound 9] | – | – | – | – | minimum inhibitory concentration against various fungi (MIC) A. fumigatus [1, 3]: 5 ng/mL (≈ 0.0127 µM); minimum inhibitory concentration against various fungi (MIC) C. albicans [2, 4]: 13 ng/mL (≈ 0.0329 µM)
27 | N#C/C(=C1/SCC(c2ncc(NC(=O)OCc3ccccc3)cc2F)S1)n1cncn1 (stereo not drawn) [compound 13] | – | – | – | – | minimum inhibitory concentration against various fungi (MIC) A. fumigatus [1, 3]: 5 ng/mL (≈ 0.011 µM); minimum inhibitory concentration against various fungi (MIC) C. albicans [2, 4]: 2.5 ng/mL (≈ 0.0055 µM)
28 | N#C/C(=C1/SCC(c2ncc(NC(=O)OCc3ccccc3)cc2Cl)S1)n1cncn1 (stereo not drawn) [compound 14] | – | – | – | – | minimum inhibitory concentration against various fungi (MIC) A. fumigatus [1, 3]: 5 ng/mL (≈ 0.0106 µM); minimum inhibitory concentration against various fungi (MIC) C. albicans [2, 4]: 1.3 ng/mL (≈ 0.00276 µM)
29 | N#C/C(=C1/SCC(c2ncc(NC(=O)OCc3ccccc3)cc2Cl)S1)n1ccnc1 (stereo not drawn) [compound 17] | – | – | – | – | minimum inhibitory concentration against various fungi (MIC) A. fumigatus [1, 3]: 5 ng/mL (≈ 0.0106 µM); minimum inhibitory concentration against various fungi (MIC) C. albicans [2, 4]: 1.3 ng/mL (≈ 0.00277 µM)
30 | CO/N=C/c1cnc(C2CS/C(=C(/C#N)n3cncn3)S2)c(F)c1 (stereo not drawn) [compound 18] | – | – | – | – | minimum inhibitory concentration against various fungi (MIC) A. fumigatus [1, 3]: 10 ng/mL (≈ 0.0276 µM); minimum inhibitory concentration against various fungi (MIC) C. albicans [2, 4]: 50 ng/mL (≈ 0.138 µM)
31 | CCO/N=C/c1cnc(C2CS/C(=C(/C#N)n3cncn3)S2)c(F)c1 (stereo not drawn) [compound 20] | – | – | – | – | minimum inhibitory concentration against various fungi (MIC) A. fumigatus [1, 3]: 10 ng/mL (≈ 0.0266 µM); minimum inhibitory concentration against various fungi (MIC) C. albicans [2, 4]: 13 ng/mL (≈ 0.0345 µM)
32 | N#C/C(=C1/SCC(c2ncc(/C=N/OCc3ccccc3)cc2F)S1)n1cncn1 (stereo not drawn) [compound 22] | – | – | – | – | minimum inhibitory concentration against various fungi (MIC) A. fumigatus [1, 3]: 5 ng/mL (≈ 0.0114 µM); minimum inhibitory concentration against various fungi (MIC) C. albicans [2, 4]: 0.6 ng/mL (≈ 0.00137 µM)
33 | N#C/C(=C1/SCC(c2ncc(/C=N/OCc3ccccc3)cc2Cl)S1)n1ccnc1 (stereo not drawn) [compound 26] | – | – | – | – | minimum inhibitory concentration against various fungi (MIC) A. fumigatus [1, 3]: 5 ng/mL (≈ 0.011 µM); minimum inhibitory concentration against various fungi (MIC) C. albicans [2, 4]: 1.3 ng/mL (≈ 0.00286 µM)
